Results as given in the NIST ThermoML archive (doi:10.1021/je3002305).
± gives the expanded uncertainty stated by the source.

Assay: refractive index (Na D-line) (dimensionless)
Conditions: 293.1 K; 101.33 kPa; Liquid; Standard Abbe refractometry

SMILES | refractive index
CCCCn1cc[n+](C)c1.F[P-](F)(F)(F)(F)F [1-butyl-3-methylimidazolium hexafluorophosphate] | 1.4101 ± 0.0008
CCCCCCn1cc[n+](C)c1.F[P-](F)(F)(F)(F)F [1-hexyl-3-methylimidazolium hexafluorophosphate] | 1.4176 ± 0.0008
CCCCCCCC[n+]1ccn(C)c1.F[P-](F)(F)(F)(F)F [1-octyl-3-methylimidazolium hexafluorophosphate] | 1.4231 ± 0.0008
CCCCc1ccccc1 [butylbenzene] | 1.4894 ± 0.0008
CCCCCCCCCCCC [dodecane] | 1.4221 ± 0.0008
